# Measurements: ChEMBL document CHEMBL1201862, “PubChem BioAssay data set” (2004)
# Calls of active or inactive are those of the source. Rule as the data show it, for most assays here: actives have a measured EC50 and inactives only a lower limit.
# What was measured:
# [1] = target: T1, RNA-binding protein pos-1 (Caenorhabditis elegans, UniProt G5EF15); test: disruptors of C. elegans POS-1 RNA interaction – biochemical, fluorescence polarization, dose response (AID 1964);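 also: purified POS-1 fused to maltose binding protein made in E. coli; potency of compounds blocking POS-1 binding to fluorescent RNA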
# T1 sequence (G5EF15 whole entry): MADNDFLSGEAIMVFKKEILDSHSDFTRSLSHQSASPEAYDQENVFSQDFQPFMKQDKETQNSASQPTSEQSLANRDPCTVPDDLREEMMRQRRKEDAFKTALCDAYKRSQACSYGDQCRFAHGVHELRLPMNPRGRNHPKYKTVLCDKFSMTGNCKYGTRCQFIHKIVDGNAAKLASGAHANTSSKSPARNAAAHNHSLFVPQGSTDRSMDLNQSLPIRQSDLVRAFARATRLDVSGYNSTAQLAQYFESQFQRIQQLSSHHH
# [2] = target: T2, Zinc finger protein mex-5 (Caenorhabditis elegans, UniProt Q9XUB2); test: potency of MEX-5 RNA-binding blockers – biochemical, C. elegans, fluorescence polarization, dose response (AID 1960)
# T2 sequence (Q9XUB2 whole entry): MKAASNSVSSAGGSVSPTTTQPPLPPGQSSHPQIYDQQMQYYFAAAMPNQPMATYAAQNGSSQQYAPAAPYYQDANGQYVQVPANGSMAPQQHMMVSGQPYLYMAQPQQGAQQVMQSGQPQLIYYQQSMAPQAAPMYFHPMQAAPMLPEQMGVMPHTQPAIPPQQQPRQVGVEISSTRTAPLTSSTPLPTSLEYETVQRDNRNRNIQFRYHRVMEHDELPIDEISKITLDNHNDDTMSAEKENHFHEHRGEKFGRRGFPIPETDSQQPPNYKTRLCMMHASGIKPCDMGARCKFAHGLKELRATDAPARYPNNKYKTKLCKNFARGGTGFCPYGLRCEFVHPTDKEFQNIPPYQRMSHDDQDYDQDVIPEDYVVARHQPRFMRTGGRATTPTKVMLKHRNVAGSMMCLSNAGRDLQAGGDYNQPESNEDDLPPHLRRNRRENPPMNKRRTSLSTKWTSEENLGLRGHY
# [3] = target: Luciferin 4-monooxygenase (Photinus pyralis, UniProt P08659); test: inhibition of purified Photinus pyralis luciferase – biochemical, luminescence, dose response (AID 1891)
# Luciferin 4-monooxygenase, sequence (P08659 whole entry): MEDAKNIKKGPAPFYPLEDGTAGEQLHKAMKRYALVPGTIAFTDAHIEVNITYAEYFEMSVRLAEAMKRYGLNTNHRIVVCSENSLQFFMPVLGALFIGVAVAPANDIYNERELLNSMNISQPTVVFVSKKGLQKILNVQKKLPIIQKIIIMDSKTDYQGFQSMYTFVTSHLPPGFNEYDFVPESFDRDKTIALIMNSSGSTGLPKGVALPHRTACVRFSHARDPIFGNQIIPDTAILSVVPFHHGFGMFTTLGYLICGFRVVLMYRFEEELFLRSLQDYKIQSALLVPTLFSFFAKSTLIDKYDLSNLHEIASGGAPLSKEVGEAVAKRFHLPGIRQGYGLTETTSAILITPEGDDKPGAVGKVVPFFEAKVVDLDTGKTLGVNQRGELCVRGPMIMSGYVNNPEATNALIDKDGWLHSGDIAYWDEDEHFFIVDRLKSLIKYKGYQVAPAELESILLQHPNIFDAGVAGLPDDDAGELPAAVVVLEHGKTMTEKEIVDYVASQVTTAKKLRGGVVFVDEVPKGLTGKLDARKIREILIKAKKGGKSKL
# [4] = Luminescence Cell-Based Dose Confirmation HTS to Identify Inhibitors of Platelet Dense Granule Release. [Related pubchem assays: 1663 (Primary HTS), 1678 (Summary of Project)]; assay type: functional
# Cytochrome P450 3A4 = Cytochrome P450 3A4 (Homo sapiens, UniProt P08684);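 also: CYP3A4 tested as one member of a cytochrome P450 panel screen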
# Cytochrome P450 3A4, sequence (P08684 whole entry): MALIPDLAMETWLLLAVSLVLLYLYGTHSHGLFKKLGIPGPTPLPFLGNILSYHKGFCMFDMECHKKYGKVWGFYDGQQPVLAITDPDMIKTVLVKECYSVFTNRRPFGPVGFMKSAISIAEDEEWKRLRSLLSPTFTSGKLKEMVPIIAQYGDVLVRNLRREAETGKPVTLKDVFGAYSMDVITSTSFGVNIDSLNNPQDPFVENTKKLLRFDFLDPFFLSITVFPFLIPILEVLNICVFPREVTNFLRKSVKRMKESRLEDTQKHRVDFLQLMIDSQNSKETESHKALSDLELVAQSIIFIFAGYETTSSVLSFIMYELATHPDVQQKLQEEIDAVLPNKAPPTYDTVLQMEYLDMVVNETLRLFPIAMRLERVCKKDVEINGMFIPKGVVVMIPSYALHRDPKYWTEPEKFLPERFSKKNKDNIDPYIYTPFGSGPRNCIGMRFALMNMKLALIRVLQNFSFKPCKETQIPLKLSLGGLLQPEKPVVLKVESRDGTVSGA
# [5] = target: T3, Corticotropin-releasing factor receptor 2/Corticotropin-releasing factor-binding protein (Homo sapiens, UniProt P24387+Q13324); test: activators of CRF receptor 2 with binding protein – uHTS hits, confirmation (AID 602473); assay type: functional; details: read-out: EC50_Mean
# T3 sequence (Q13324 whole entry): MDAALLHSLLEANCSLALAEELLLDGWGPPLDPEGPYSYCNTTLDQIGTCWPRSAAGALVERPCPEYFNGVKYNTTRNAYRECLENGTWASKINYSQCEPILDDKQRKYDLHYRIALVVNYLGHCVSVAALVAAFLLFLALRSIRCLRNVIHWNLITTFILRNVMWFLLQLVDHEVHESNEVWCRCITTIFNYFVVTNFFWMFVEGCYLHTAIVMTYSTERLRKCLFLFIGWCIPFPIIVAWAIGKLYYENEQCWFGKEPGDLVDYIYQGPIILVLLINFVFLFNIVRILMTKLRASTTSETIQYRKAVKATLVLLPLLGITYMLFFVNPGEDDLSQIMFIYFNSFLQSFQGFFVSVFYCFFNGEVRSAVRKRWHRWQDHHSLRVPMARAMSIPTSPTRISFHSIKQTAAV
# T3 sequence (P24387 whole entry): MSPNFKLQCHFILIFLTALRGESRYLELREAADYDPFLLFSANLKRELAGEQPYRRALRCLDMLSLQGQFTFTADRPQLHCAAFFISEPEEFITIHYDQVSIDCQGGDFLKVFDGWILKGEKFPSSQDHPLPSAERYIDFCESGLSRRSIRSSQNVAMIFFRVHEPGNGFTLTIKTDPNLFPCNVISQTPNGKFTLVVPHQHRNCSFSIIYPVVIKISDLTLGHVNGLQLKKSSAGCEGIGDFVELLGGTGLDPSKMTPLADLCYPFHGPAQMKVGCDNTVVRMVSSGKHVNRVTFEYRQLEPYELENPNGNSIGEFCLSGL
# [6] = luciferase reporter signal suppression in cells – H4 neuroglioma cells, luminescence, dose response (AID 1990); assay type: functional, cell-based
# [7] = alpha-synuclein stem-loop luciferase translation blockers – H4 neuroglioma cells, luminescence, confirmation (AID 1988); assay type: functional, cell-based
# [8] = Luminescence Cell-Based Dose Response HTS to Identify Inhibitors of 5'UTR Stem-Loop Driven Prion Protein mRNA Translation in H4 Neuroglioblastoma Cells. [Related pubchem assays: 1827 (Project Summary), 1813 (Primary HTS)]; assay type: functional
# [9] = target: FAD-linked sulfhydryl oxidase ALR (Homo sapiens, UniProt P55789); test: ALR-catalysed DTT oxidation blockers – biochemical, H2O2 detection, luminescence, cherry-pick, dose response (AID 493248)
# FAD-linked sulfhydryl oxidase ALR, sequence (P55789 whole entry): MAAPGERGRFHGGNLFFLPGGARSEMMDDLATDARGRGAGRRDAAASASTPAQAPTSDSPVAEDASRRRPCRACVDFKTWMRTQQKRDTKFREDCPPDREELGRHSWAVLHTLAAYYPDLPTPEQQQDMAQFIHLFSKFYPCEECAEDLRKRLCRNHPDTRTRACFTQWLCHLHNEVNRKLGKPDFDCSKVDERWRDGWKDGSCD
# [10] = NIH3T3 cell viability loss – ATP luminescence, mouse fibroblasts, counter-screen, dose response (AID 2010); assay type: functional, cell-based;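 also: cells exposed to compound for about 90 hours before reading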
# [11] = Trypanosoma cruzi growth suppression in host cells – NIH3T3 host cells, beta-gal luminescence, confirmation (AID 2044); assay type: functional, cell-based;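 also: intracellular parasites grown in NIH/3T3 mouse fibroblasts as host cells; luminescent beta-galactosidase reporter signal from transgenic T. cruzi replicating inside host cells; inhibitors lower the luminescence signal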
# [12] = target: T4, Rac GTPase-activating protein 1 (Homo sapiens, UniProt Q9H0H5); test: blockers of MgcRacGAP-driven Rac1 GTP hydrolysis – biochemical, ADP Hunter fluorescence, primary and confirmatory, confirmation (AID 624330); assay type: functional
# T4 sequence (Q9H0H5 whole entry): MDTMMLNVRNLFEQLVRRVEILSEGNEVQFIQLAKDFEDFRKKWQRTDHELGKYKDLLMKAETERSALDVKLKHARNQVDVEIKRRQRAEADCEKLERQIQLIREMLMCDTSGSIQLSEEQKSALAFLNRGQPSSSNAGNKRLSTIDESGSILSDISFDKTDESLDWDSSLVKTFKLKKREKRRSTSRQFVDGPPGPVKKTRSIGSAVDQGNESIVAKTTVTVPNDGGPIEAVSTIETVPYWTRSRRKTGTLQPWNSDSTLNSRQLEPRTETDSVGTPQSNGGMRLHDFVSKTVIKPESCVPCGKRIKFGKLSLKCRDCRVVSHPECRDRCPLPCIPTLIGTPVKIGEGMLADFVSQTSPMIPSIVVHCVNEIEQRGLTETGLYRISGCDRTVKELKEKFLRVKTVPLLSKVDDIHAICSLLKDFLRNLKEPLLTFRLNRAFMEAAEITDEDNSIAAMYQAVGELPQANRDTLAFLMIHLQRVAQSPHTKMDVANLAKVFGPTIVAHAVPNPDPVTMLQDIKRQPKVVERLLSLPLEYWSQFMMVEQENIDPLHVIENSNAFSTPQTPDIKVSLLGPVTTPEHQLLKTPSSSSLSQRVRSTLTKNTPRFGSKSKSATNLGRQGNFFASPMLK
structure (smiles),measurement,setting,value
CC(=O)NCCNc1ccc([N+](=O)[O-])cc1C#N,EC50,[1],> 300 µM (not active)
same,EC50,[2],> 300 µM (not active)
O=CN/N=C/c1c(O)ccc2ccccc12,EC50,[1],> 300 µM (not active)
same,EC50,[2],5.35 µM (active)
CN1CCC(NC(=O)Nc2cccc(C(F)(F)F)c2)CC1,EC50,[3],> 112 µM (not active)
same,EC50,[4],> 112 µM (not active)
Cc1onc(-c2c(F)cccc2Cl)c1C(=O)N1CCCc2ccccc21,EC50,[1],> 300 µM (not active)
same,EC50,[2],> 300 µM (not active)
O=C(O)c1nc2nc(Cl)c(Cl)nc2[nH]1,AC50,Cytochrome P450 3A4,3.16 µM (inconclusive)
CSc1ccc(/C=N/NC(=O)c2ccc(O)cc2)cc1,EC50,[3],1.57 µM (active)
same,EC50,[4],13.9 µM (active)
CC(=O)N(C)c1ccc(/N=N/c2c(C)[nH]n(C(N)=S)c2=O)cc1,EC50,[1],> 300 µM (not active)
same,EC50,[2],24.2 µM (active)
COc1cc(/C=C(\C#N)C(=O)NCCc2ccccc2)cc(OC)c1O,EC50,[5],> 53 µM (inactive)
COc1cccc(C2(O)CCN(CC(=O)Nc3nc(C)cs3)CC2)c1,EC50,[1],> 300 µM (not active)
same,EC50,[2],> 300 µM (not active)
Cc1ccc(-n2nnnc2SCCNS(=O)(=O)c2ccccc2)cc1C,EC50,[6],> 120 µM (not active)
same,EC50,[7],> 120 µM (not active)
same,EC50,[8],20.5 µM (active)
N#CC(C#N)=Cc1ccc(-c2ccc(S(=O)(=O)NC(=N)N)cc2)o1,EC50,[1],> 300 µM (not active)
same,EC50,[2],236 µM (active)
CCCCC1=CC2=CC(=O)C(C)(OC(=O)c3cnc4ccccc4n3)C(=O)C2=CO1 (stereo unspecified),EC50,[1],19.9 µM (active)
same,EC50,[2],19 µM (active)
COCCNC(=O)/C(C#N)=C/c1ccc(O)cc1,EC50,[3],4.8 µM (active)
same,EC50,[4],1.62 µM (active)
C/C(=N\C1CCCC1)c1c(C)[nH]n(-c2nc3ccccc3s2)c1=O,AC50,[9],1.24 µM (active)
same,EC50,[1],> 300 µM (not active)
same,EC50,[2],> 300 µM (not active)
CCn1c2ccccc2c2cc(NC(=O)CSc3nnc(-c4cccc(Cl)c4)o3)ccc21,EC50,[3],> 112 µM (not active)
same,EC50,[4],> 112 µM (not active)
O=C(CN(c1ccc(Cl)cc1)S(=O)(=O)c1ccc(Cl)c([N+](=O)[O-])c1)NCCc1ccccc1,EC50,[10],> 60 µM (not active)
same,EC50,[6],> 120 µM (not active)
same,EC50,[11],3.56 µM (active)
same,EC50,[7],9.06 µM (active)
same,EC50,[8],8.52 µM (active)
COc1cc(C)c(N)cc1C(C)C,AC50,[9],0.027 µM (active)
same,EC50,[10],> 60 µM (not active)
same,IC50,[12],113 µM (active)
same,EC50,[11],16.9 µM (active)
N#CC1=C(N)C(C#N)(C#N)C(c2cccnc2)C2CCCC=C12 (stereo unspecified),EC50,[1],22.2 µM (active)
same,EC50,[2],17.5 µM (active)
